Measurements published in the NIST ThermoML archive (doi:10.1016/j.tca.2014.07.018).
Several values for one entry are separate records, joined by “and”; a condition that tells them apart may be missing. Equal entries are not always repeated. Numbers after ± are expanded uncertainties.

Details: Crystal; for molar entropy / mass density: 101.33 kPa; for molar entropy: Small (less than 1 g) adiabatic calorimetry; for vapor or sublimation pressure: Calculated from knudsen effusion weight loss

C1C2CC3CC1CC(c1nnn[nH]1)(C2)C3 [5-(1-adamantyl)tetrazole]
Details | Normal melting temperature [°C] | molar entropy [J/K/mol] | vapor or sublimation pressure
5 K | – | 0.1627 ± 0.027 | –
10 K | – | 1.359 ± 0.056 | –
15 K | – | 4.002 ± 0.12 | –
20 K | – | 7.655 ± 0.17 | –
25 K | – | 11.89 ± 0.21 | –
30 K | – | 16.44 ± 0.25 | –
35 K | – | 21.13 ± 0.29 | –
40 K | – | 25.84 ± 0.33 | –
45 K | – | 30.53 ± 0.37 | –
50 K | – | 35.17 ± 0.41 | –
60 K | – | 44.22 ± 0.47 | –
70 K | – | 52.95 ± 0.55 | –
80 K | – | 61.41 ± 0.61 | –
90 K | – | 69.64 ± 0.71 | –
100 K | – | 77.69 ± 0.77 | –
120 K | – | 93.37 ± 0.88 | –
140 K | – | 108.7 ± 1 | –
160 K | – | 123.8 ± 1.1 | –
180 K | – | 138.9 ± 1.2 | –
200 K | – | 154 ± 1.4 | –
220 K | – | 169.4 ± 1.4 | –
240 K | – | 185 ± 1.6 | –
260 K | – | 200.8 ± 1.7 | –
280 K | – | 216.8 ± 1.8 | –
298.15 K | – | 231.5 ± 1.9 | –
300 K | – | 232.9 ± 1.9 | –
320 K | – | 249 ± 2 | –
340 K | – | 265 ± 2.1 | –
360 K | – | 281 ± 2.3 | –
370 K | – | 289 ± 2.3 | –
393.68 K | – | – | 5.34e-05 ± 3.3e-06 kPa
398.71 K | – | – | 8.43e-05 ± 5.2e-06 kPa and 8.47e-05 ± 5.3e-06 kPa
403.71 K | – | – | 0.0001344 ± 8.3e-06 kPa
403.72 K | – | – | 0.0001377 ± 8.5e-06 kPa
403.74 K | – | – | 0.0001377 ± 8.5e-06 kPa
408.72 K | – | – | 0.0002136 ± 1.3e-05 kPa and 0.0002121 ± 1.3e-05 kPa
408.74 K | – | – | 0.0002167 ± 1.3e-05 kPa
413.74 K | – | – | 0.0003204 ± 2e-05 kPa
413.75 K | – | – | 0.0003212 ± 2e-05 kPa
413.76 K | – | – | 0.0003363 ± 2.1e-05 kPa
418.74 K | – | – | 0.0005125 ± 3.2e-05 kPa
418.77 K | – | – | 0.0005047 ± 3.1e-05 kPa
418.8 K | – | – | 0.000516 ± 3.2e-05 kPa
visual observation | 251.00 ± 2 | – | –

Details | mass density [kg/m3]
100 K, X-ray diffraction | 1308 ± 6
292.15 K, Pycnometric method | 1470 ± 180
